Data as given in patent US8735398B2 (Bristol-Myers Squibb Company, priority 2009, dated 2014).
Where two headings read alike, the source gives them in different places.

System: HCV 1b genotype
Assay: HCV replicon assay (HCV-neo replicon cells, wild-type)
Assay type: cell-based, Hepatitis C virus
Settings: Hepatitis C virus, HCV 1b genotype replicon
How it was run: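 Inhibition was tested in replicon-bearing cells, both wild-type HCV-neo and lines with NS5A resistance substitutions, using the O'Boyle et al. 2005 replicon method or luciferase-reporter formats.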

[1] = class symbol, read-out: EC50 Range against HCV 1b

Structure (SMILES)	EC50 [1] [nM]	EC50 (read-out: EC50 1b) [nM]
CN(C)[C@@H](C(=O)N1CCC[C@@H]1C(=O)N1CCC[C@H]1C(=O)Nc1ccc(-c2cnc(-c3ccc(NC(=O)[C@@H]4CCCN4C(=O)[C@H]4CCCN4C(=O)[C@@H](c4ccccc4)N(C)C)cc3)o2)cc1)c1ccccc1 [Example D-39, (2S,2′S)-N,N′-(1,3-oxazole-2,5-diyldi-4,1-phenylene)bis(1-(((2R)-1-((2R)-2-(dimethylamino)-2-phenylacetyl)-2-pyrrolidinyl)carbonyl)-2-pyrrolidinecarboxamide)]	1000 to 10000	–
CN(C)[C@@H](C(=O)N1[C@H](C(=O)N2CCC[C@H]2C(=O)Nc2ccc(-c3cnc(-c4ccc(NC(=O)[C@@H]5CCCN5C(=O)[C@@H]5C[C@@H]6C[C@@H]6N5C(=O)[C@@H](c5ccccc5)N(C)C)cc4)o3)cc2)C[C@@H]2C[C@@H]21)c1ccccc1 [Example D-40, (2S,2′S)-N,N′-(1,3-oxazole-2,5-diyldi-4,1-phenylene)bis(1-(((1S,3S,5S)-2-((2R)-2-(dimethylamino)-2-phenylacetyl)-2-azabicyclo[3.1.0]hex-3-yl)carbonyl)-2-pyrrolidinecarboxamide)]	100 to 999	–
CN(C)[C@@H](C(=O)N1CCCC1(C)C(=O)N1CCC[C@H]1C(=O)Nc1ccc(-c2cnc(-c3ccc(NC(=O)[C@@H]4CCCN4C(=O)C4(C)CCCN4C(=O)[C@@H](c4ccccc4)N(C)C)cc3)o2)cc1)c1ccccc1 (stereo partly drawn) [Example D-41, (2S,2′S)-N,N′-(1,3-oxazole-2,5-diyldi-4,1-phenylene)bis(1-((1-((2R)-2-(dimethylamino)-2-phenylacetyl)-2-methyl-2-pyrrolidinyl)carbonyl)-2-pyrrolidinecarboxamide)]	100 to 999	–
CC(=O)N1CCC[C@H]1C(=O)Nc1ccc(-c2sc(C)nc2-c2ccc(NC(=O)[C@@H]3CCCN3C(=O)Cc3ccccc3)cc2)cc1 [Example D-42, (2S)-1-acetyl-N-(4-(2-methyl-4-(4-((((2S)-1-(phenylacetyl)-2-pyrrolidinyl)carbonyl)amino)phenyl)-1,3-thiazol-5-yl)phenyl)-2-pyrrolidinecarboxamide]	1000 to 10000	–
CC(=O)N1CCC[C@H]1C(=O)Nc1ccc(-c2nc(C)sc2-c2ccc(NC(=O)[C@@H]3CCCN3C(C)=O)cc2)cc1 [Example D-43, (2S,2′S)-N,N′-((2-methyl-1,3-thiazole-4,5-diyl)di-4,1-phenylene)bis(1-acetyl-2-pyrrolidinecarboxamide)]	100 to 999	–
Cc1nc(-c2ccc(NC(=O)[C@@H]3CCCN3C(=O)Cc3ccccc3)cc2)c(-c2ccc(NC(=O)[C@@H]3CCCN3C(=O)Cc3ccccc3)cc2)s1 [Example D-44, (2S,2′S)-N,N′-((2-methyl-1,3-thiazole-4,5-diyl)di-4,1-phenylene)bis(1-(phenylacetyl)-2-pyrrolidinecarboxamide)]	4.57 to 99	–
CC(=O)N1CCC[C@H]1C(=O)Nc1ccc(-c2nc(-c3ccc(NC(=O)[C@@H]4CCCN4C(=O)Cc4ccccc4)cc3)cs2)cc1 [Example D-45, (2S)-1-acetyl-N-(4-(4-(4-((((2S)-1-(phenylacetyl)-2-pyrrolidinyl)carbonyl)amino)phenyl)-1,3-thiazol-2-yl)phenyl)-2-pyrrolidinecarboxamide]	100 to 999	–
CC(=O)N1CCC[C@H]1C(=O)Nc1ccc(-c2nc(-c3ccc(NC(=O)C4CC(=O)N(CCc5cccs5)C4)cc3)cs2)cc1 (stereo partly drawn) [Example D-46, (2S)-1-acetyl-N-[4-[4-[4-[[[5-oxo-1-[2-(2-thienyl)ethyl]-3-pyrrolidinyl]carbonyl]amino]phenyl]-2-thiazolyl]phenyl]-2-pyrrolidinecarboxamide]	1000 to 10000	–
CC(=O)N1CCC[C@H]1C(=O)Nc1ccc(-c2nc(-c3ccc(NC(=O)[C@@H]4C=CCN4C(=O)c4cccs4)cc3)cs2)cc1 [Example D-47, (2S)-N-[4-[2-[4-[[[(2S)-1-acetyl-2-pyrrolidinyl]carbonyl]amino]phenyl]-4-thiazolyl]phenyl]-2,5-dihydro-1-(2-thienylcarbonyl)-1H-pyrrole-2-carboxamide]	1000 to 10000	–
CC(=O)N1CCC[C@H]1C(=O)Nc1ccc(-c2nc(-c3ccc(NC(=O)[C@@H]4C=CCN4C(=O)Cc4cccs4)cc3)cs2)cc1 [Example D-48, (2S)-N-[4-[2-[4-[[[(2S)-1-acetyl-2-pyrrolidinyl]carbonyl]amino]phenyl]-4-thiazolyl]phenyl]-2,5-dihydro-1-(2-thienylacetyl)-1H-pyrrole-2-carboxamide]	100 to 999	–
CC(=O)N1CCC[C@H]1C(=O)Nc1ccc(-c2nc(-c3ccc(NC(=O)[C@@H]4C=CCN4C(=O)Cc4ccccc4)cc3)cs2)cc1 [Example D-49, (2S)-N-[4-[2-[4-[[[(2S)-1-acetyl-2-pyrrolidinyl]carbonyl]amino]phenyl]-4-thiazolyl]phenyl]-2,5-dihydro-1-(phenylacetyl)-1H-pyrrole-2-carboxamide]	1000 to 10000	–
CC(=O)N1CCC[C@H]1C(=O)Nc1ccc(-c2nc(-c3ccc(NC(=O)[C@@H]4C=CCN4C(=O)c4ccno4)cc3)cs2)cc1 [Example D-50, (2S)-N-[4-[2-[4-[[[(2S)-1-acetyl-2-pyrrolidinyl]carbonyl]amino]phenyl]-4-thiazolyl]phenyl]-2,5-dihydro-1-(5-isoxazolylcarbonyl)-1H-pyrrole-2-carboxamide]	100 to 999	–
CC(=O)N1CCC[C@H]1C(=O)Nc1ccc(-c2nc(-c3ccc(NC(=O)[C@@H]4C=CCN4C(=O)[C@H]4CCCO4)cc3)cs2)cc1 [Example D-51, (2S)-N-[4-[2-[4-[[[(2S)-1-acetyl-2-pyrrolidinyl]carbonyl]amino]phenyl]-4-thiazolyl]phenyl]-2,5-dihydro-1-[[(2R)-tetrahydro-2-furanyl]carbonyl]-1H-pyrrole-2-carboxamide]	1000 to 10000	3430
CC(=O)N1CCC[C@H]1C(=O)Nc1ccc(-c2nc(-c3ccc(NC(=O)[C@@H]4C=CCN4C(=O)[C@@H]4CCCO4)cc3)cs2)cc1 [Example D-52, (2S)-N-[4-[2-[4-[[[(2S)-1-acetyl-2-pyrrolidinyl]carbonyl]amino]phenyl]-4-thiazolyl]phenyl]-2,5-dihydro-1-[[(2S)-tetrahydro-2-furanyl]carbonyl]-1H-pyrrole-2-carboxamide]	1000 to 10000	–
CC(=O)N1CCC[C@H]1C(=O)Nc1ccc(-c2nc(-c3ccc(NC(=O)[C@@H]4C=CCN4C(=O)c4ccccc4)cc3)cs2)cc1 [Example D-53, (2S)-N-[4-[2-[4-[[[(2S)-1-acetyl-2-pyrrolidinyl]carbonyl]amino]phenyl]-4-thiazolyl]phenyl]-1-benzoyl-2,5-dihydro-1H-pyrrole-2-carboxamide]	1000 to 10000	1130
CC(=O)N1CCC[C@H]1C(=O)Nc1ccc(-c2nnc(-c3ccc(NC(=O)[C@@H]4CCCN4C(=O)Cc4ccccc4)cc3)o2)cc1 [Example D-54, (2S)-1-acetyl-N-[4-[5-[4-[[[(2S)-1-(phenylacetyl)-2-pyrrolidinyl]carbonyl]amino]phenyl]-1,3,4-oxadiazol-2-yl]phenyl]-2-pyrrolidinecarboxamide]	1000 to 10000	4760
CC(=O)N1CCC[C@H]1C(=O)Nc1ccc(-c2nnc(-c3ccc(NC(=O)[C@@H]4CCCN4C(C)=O)cc3)o2)cc1 [Example D-55, (2S,2′S)-N,N′-(1,3,4-oxadiazole-2,5-diyldi-4,1-phenylene)bis[1-acetyl-2-pyrrolidinecarboxamide]]	1000 to 10000	10000
O=C(Nc1ccc(-c2nnc(-c3ccc(NC(=O)[C@@H]4CCCN4C(=O)CC4CC4)cc3)o2)cc1)[C@@H]1CCCN1C(=O)CC1CC1 [Example D-57, (2S,2′S)-N,N′-(1,3,4-oxadiazole-2,5-diyldi-4,1-phenylene)bis[1-(cyclopropylacetyl)-2-pyrrolidinecarboxamide]]	1000 to 10000	1950
O=C(Nc1ccc(-c2nnc(-c3ccc(NC(=O)[C@@H]4CCCN4C(=O)C4CC4)cc3)o2)cc1)[C@@H]1CCCN1C(=O)C1CC1 [Example D-58, (2S,2′S)-N,N′-(1,3,4-oxadiazole-2,5-diyldi-4,1-phenylene)bis[1-(cyclopropylcarbonyl)-2-pyrrolidinecarboxamide]]	1000 to 10000	2210
O=C(Nc1ccc(-c2nnc(-c3ccc(NC(=O)[C@@H]4CCCN4C(=O)C4CCC4)cc3)o2)cc1)[C@@H]1CCCN1C(=O)C1CCC1 [Example D-59, (2S,2′S)-N,N′-(1,3,4-oxadiazole-2,5-diyldi-4,1-phenylene)bis[1-(cyclobutylcarbonyl)-2-pyrrolidinecarboxamide]]	1000 to 10000	5450
O=C(Nc1ccc(-c2nnc(-c3ccc(NC(=O)[C@@H]4CCCN4C(=O)[C@@H]4CCCO4)cc3)o2)cc1)[C@@H]1CCCN1C(=O)C1CCCO1 (stereo partly drawn) [Example D-60, (S,2S,2′S)-N,N′-(4,4′-(1,3,4-oxadiazole-2,5-diyl)bis(4,1-phenylene))bis(1-((S)-tetrahydrofuran-2-carbonyl)pyrrolidine-2-carboxamide)]	100 to 999	650
O=C(Nc1ccc(-c2nnc(-c3ccc(NC(=O)[C@@H]4CCCN4C(=O)Cc4cccs4)cc3)o2)cc1)[C@@H]1CCCN1C(=O)Cc1cccs1 [Example D-61, (2S,2′S)-N,N′-(4,4′-(1,3,4-oxadiazole-2,5-diyl)bis(4,1-phenylene))bis(1-(2-(thiophen-2-yl)acetyl)pyrrolidine-2-carboxamide)]	100 to 999	327
CC(=O)N1CCC[C@H]1C(=O)Nc1ccc(-c2nnc(-c3ccc(NC(=O)[C@@H]4CCCN4C(=O)Cc4cccs4)cc3)o2)cc1 [Example D-62, (2S)-1-acetyl-N-[4-[5-[4-[[[(2S)-1-(2-thienylacetyl)-2-pyrrolidinyl]carbonyl]amino]phenyl]-1,3,4-oxadiazol-2-yl]phenyl]-2-pyrrolidinecarboxamide]	1000 to 10000	3470
O=C(Nc1ccc(-c2nnc(-c3ccc(NC(=O)[C@@H]4CCCN4C(=O)Cc4cccnc4)cc3)o2)cc1)[C@@H]1CCCN1C(=O)Cc1cccnc1 [Example D-63, (2S,2′S)-N,N′-(1,3,4-oxadiazole-2,5-diyldi-4,1-phenylene)bis[1-(3-pyridinylacetyl)-2-pyrrolidinecarboxamide]]	1000 to 10000	1940
